Values after ≈ are worked out from the molar mass of the structure shown.

The text below walks through data of patent EP0983275B1, “NOVEL TRIPTOLIDE DERIVATIVES USEFUL IN THE TREATMENT OF AUTOIMMUNE DISEASES” (priority 1997, dated 1998).

The nature of series [1]: Body weight change (weight gain) in the rat model of adjuvant-induced arthritis. In kind it is in vivo, Male Wistar-Lewis rats. Particulars: 10 mg/kg/day i.p.; weight gain between day 1 and day 21. As to the method: (§1) Following generally the procedure of Pearson and Wood, Arth. Rheum., 2, 44 (1959), the anti-inflammatory activity of the following compounds was determined in a rat model of adjuvant-induced arthritis. Male Wistar-Lewis rats (Mollegaard, Breeding Centre Ltd, BIBY, DK 4623 LI, SKENSVED, P.P. Box 28, DK) with a body weight between 160 g and 200 g are used. Freund's adjuvant (0.1 mL, 6 mg Mycobacterium smegmatis suspension per mL in heavy white paraffin oil, Merck/Darmstadt) was injected into the base of the tail. Between day 10 and day 14 of the test, immunopathological processes let to chronic inflammation, especially in the form of arthritic and periarthritic symptoms in all parts of the body. The animals received standardized food Altromin-R (Altrogge, Lage) and had free access to water. The compounds were administered i.p. (a suspension in carboxymethyl cellulose solution in an injection volume of 0.5 mL/100 g body weight) on 12 consecutive days, starting with the day of the adjuvant injection. On day 1 and day 18 of the study, the volume of both hind paws and the body weight were recorded, and in addition on day 18 the arthritis index. Cyclosporin A and Prednisolone were used as standard compounds. In addition, table IV presents the percent change in body weight (weight gain) between day 1 and day 21 of the above test.

The subject of series [2] is adjuvant-induced arthritis. In words: Anti-inflammatory activity in the rat model of adjuvant-induced arthritis. In kind it is in vivo, Male Wistar-Lewis rats. The following applies: 12 consecutive days. The method, then:
as §1, with “Between day 10 and day 14 of the test, immunopathological processes let to chronic inflammation, especially in the form of arthritic and periarthritic symptoms in all parts of the body.” left out, “index.” for “index. Cyclosporin A and Prednisolone were used as standard compounds. In addition, table IV presents the percent change in body weight (weight gain) between day 1 and day 21 of the above test.”

The subject of series [3] is IL-2 production. In words: Interleukin-2 assay (IL-2 production by ELISA after PHA/TPA stimulation). The class given is cell-based. Particulars: Jurkat E6-1 cells or human lymphocytes stimulated with PHA 10 µg/mL and 10^-8 M TPA; 16-24 hours. The method, then:
(§2) Jurkat E6-1 cell line (ATCC), a human leukemic T cell line or lymphocytes prepared from fresh human blood, are grown in complete culture medium consisting of RPMI-1640 (Mediatech) supplemented with 10% v/v fetal bovine serum (HyClone, Logen, Vermont), penicillin (100 units/mL), streptomycin ([…]), and 2mM L-glutamine (GIBCO, Grand Island, New York). The cells are grown to a concentration of between 1.2 to 1.8 X 10^6 cells/mL before use. The cells are then centrifuged at low speed and resuspended to a concentration of 1.25 X 10^6 cells/mL in fresh medium.
(§3) The compounds to be tested are dissolved in DMSO, and water is added to make a 50% DMSO/water solution. The compounds are then diluted in sterile water such that the DMSO concentrations are less then 0.05%. The cells at a concentration of 1.25 X 10^6 cells/mL are stimulated with phytohemagglutinin 10 µg/mL (PHA) and 10^-8 M phorbol ester (12-O-tetradecanoylphorbol 13-acetate: TPA), (Sigma, St. Louis, Missouri). The compounds are then added and the cells are plated in flat-bottom tissue culture plates (Falcon, Lincoln Park, New Jersey), with 250,000 cells/well. Plates are then incubated at 37°C in a 5% CO2 atmosphere.
(§4) After incubation (16-24 hours), the cells are assayed for IL-2 production and cell viability (MTT). IL-2 production is assayed utilizing a solid phase ELISA immunoassay, sold in kit form by R&D Systems, Inc., Minneapolis, Minnesota.
In general terms: An ELISA detects its analyte on a solid surface through an enzyme-linked reagent.

The test system of series [4] is Jurkat E6-1 cell line. In words: Cell viability (MTT mitochondrial enzyme assay). In kind it is cell-based, human. The following applies: cells of the IL-2 assay after removal of supernatant, MTT 4 hours at 37°C. As to the method:
as §2, §3, §4
Cell viability is measured by the use of a mitochondrial enzyme assay. After removal of the supernatant for the IL-2 assay, Cell Titer 96 (a commercial solution of MTT obtained from Promega, Madison, Wisconsin), is added to the plates and incubated for 4 hours at 37°C. A solubilization solution is then added and incubated overnight. The plates are then read on an ELISA plate reader at a wavelength of 570 nm. Table II presents the results for the Interleukin-2 assay, the cell viability assay and the ratio of cell viability/IL-2 inhibition.
Background: Tetrazolium dyes change colour on reduction, which living cells bring about.

With `CC(C)C12OC1C1OC13C1(C)CCC4=C(COC4=O)C1CCC3(O)C2O` (stereo not drawn) [Example 1, [5aR-(5aα,6α,6aα,7aα,7bβ,8aS*,8bα)]-3,3b,4,5,5a,6,6a,7a,7b,8b,9,10-dodecahydro-5a,6-dihydroxy-8b-methyl-6a-(1-methylethyl)-1H-bisoxireno[4b,5:6,7]phenanthro[1,2-c]furan-1-one], in series [1], the “% Change in Body Weight” value is listed as 29.9%. Moreover, the “% Inhibition” value in series [2] (10 mg/kg/day i.p.) was 90%. Moreover, the IC50/IL-2 in series [3] is 0.036 µg/mL (≈ 0.0993 µM). This compound also came in with an IC50/MTT in series [4] of 0.3 to 0.5 µg/mL.

Turning to `C[C@]12C=CC(=O)C=C1CC[C@@H]1[C@@H]2[C@@H](O)C[C@@]2(C)[C@H]1CC[C@]2(O)C(=O)CO` [Prednisolone], the “% Inhibition” value in series [2] (15 mg/kg/day i.p.) is 100%.

Turning to `CC(C)[C@]12O[C@H]1[C@@H]1O[C@]13[C@]1(O[C@H]1C[C@H]1C4=C(CC[C@@]13C)C(=O)OC4)[C@@H]2O` [Triptolide], the “% Inhibition” value in series [2] (0.2 mg/kg/day i.p.) was 70%; in series [2] (0.4 mg/kg/day i.p.), 85%; in series [2] (0.8 mg/kg/day i.p.) it was 76%. For the same compound, the IC50 is 0.001 to 0.003 µg/mL (≈ 0.00277 to 0.00832 µM) in series [3] and 0.005 µg/mL (≈ 0.0139 µM) in series [4] (Homo sapiens, Jurkat E6.1).

As to “[1S-(1α,2β,3α,3aβ,4aR*,4bα,11aα)]-3-chloro-1,2,3,3a,4b,5,6,9,9b,10,11,11a-dodecahydro-1,2,11a-trihydroxy-4b-methyl-2-(1-methylethyl)-7H-oxireno[4b,5]phenanthro[1,2-c]furan-7-one [Example 2]”, the IC50/IL-2 in series [3] was determined as 0.06 µg/mL. In series [4], the IC50/MTT was 0.55 µg/mL.

For orientation: % Inhibition means how much of the control response was suppressed. Usually IC50 stands for the concentration that inhibits the measured activity by half.
